Assay results as given in patent US10670605B2, “Cysteine reactive probes and uses thereof” (The Scripps Research Institute, priority 2015, dated 2020).
Blank lines part the entries; values can stand above or below the compound they belong to.

How the values were obtained:
Assay in all cases: Competitive isoTOP-ABPP in situ (fragment-treated cells)
Format in all cases: cell-based
[1] = biological target: T1, cysteines in MDA-MB-231 and Ramos cells (Homo sapiens, UniProt Q5JPI3)
T1 sequence (Q5JPI3 1-329): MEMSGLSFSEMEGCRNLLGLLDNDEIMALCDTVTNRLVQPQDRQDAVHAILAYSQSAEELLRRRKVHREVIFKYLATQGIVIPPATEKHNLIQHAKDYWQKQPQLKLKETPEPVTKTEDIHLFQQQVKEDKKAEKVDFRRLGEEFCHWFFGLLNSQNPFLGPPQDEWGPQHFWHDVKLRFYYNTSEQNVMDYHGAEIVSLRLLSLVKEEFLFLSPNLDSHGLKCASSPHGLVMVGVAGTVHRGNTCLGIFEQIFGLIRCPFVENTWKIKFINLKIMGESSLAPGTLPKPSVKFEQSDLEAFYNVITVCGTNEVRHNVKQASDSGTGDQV

[2] = biological target: T2, cysteines in MDA-MB-231 and Ramos cells (Homo sapiens, UniProt Q9NTX5)
T2 sequence (Q9NTX5 1-307): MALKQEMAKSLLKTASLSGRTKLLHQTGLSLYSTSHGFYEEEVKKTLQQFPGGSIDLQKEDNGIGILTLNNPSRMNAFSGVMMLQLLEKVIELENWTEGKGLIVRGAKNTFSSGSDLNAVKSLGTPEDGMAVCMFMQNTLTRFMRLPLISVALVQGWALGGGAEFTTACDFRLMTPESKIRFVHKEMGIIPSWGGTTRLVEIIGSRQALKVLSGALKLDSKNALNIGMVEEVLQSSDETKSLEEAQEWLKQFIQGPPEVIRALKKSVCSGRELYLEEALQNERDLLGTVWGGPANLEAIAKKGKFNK

[3] = biological target: T3, cysteines in MDA-MB-231 and Ramos cells (Homo sapiens, UniProt Q9P0J1)
T3 sequence (Q9P0J1 72-537): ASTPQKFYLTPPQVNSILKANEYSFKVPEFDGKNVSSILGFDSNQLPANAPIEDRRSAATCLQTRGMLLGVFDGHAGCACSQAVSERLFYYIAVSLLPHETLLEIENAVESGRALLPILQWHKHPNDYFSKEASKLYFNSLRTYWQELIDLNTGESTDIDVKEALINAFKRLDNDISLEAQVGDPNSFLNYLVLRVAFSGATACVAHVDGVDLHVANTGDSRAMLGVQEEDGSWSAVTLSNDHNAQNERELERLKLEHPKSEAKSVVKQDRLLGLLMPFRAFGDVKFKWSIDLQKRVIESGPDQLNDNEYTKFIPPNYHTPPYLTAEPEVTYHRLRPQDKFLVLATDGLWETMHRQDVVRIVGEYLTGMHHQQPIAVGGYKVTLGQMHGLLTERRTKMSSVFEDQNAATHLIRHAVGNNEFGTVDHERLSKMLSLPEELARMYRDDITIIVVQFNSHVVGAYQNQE

[4] = biological target: T4, cysteines in MDA-MB-231 and Ramos cells (Homo sapiens, UniProt Q86X76)
T4 sequence (Q86X76 14-327): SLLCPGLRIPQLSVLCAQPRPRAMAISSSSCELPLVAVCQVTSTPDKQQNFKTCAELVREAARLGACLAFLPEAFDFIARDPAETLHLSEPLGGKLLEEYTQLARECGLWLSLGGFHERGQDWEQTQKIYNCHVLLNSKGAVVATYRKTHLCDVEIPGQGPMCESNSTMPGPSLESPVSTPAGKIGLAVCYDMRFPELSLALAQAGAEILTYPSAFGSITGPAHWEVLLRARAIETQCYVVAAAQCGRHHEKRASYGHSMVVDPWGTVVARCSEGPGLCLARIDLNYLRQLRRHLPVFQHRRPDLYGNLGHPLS

[5] = biological target: T5, cysteines in MDA-MB-231 and Ramos cells (Homo sapiens, UniProt Q96RS6)
T5 sequence (Q96RS6 1-583): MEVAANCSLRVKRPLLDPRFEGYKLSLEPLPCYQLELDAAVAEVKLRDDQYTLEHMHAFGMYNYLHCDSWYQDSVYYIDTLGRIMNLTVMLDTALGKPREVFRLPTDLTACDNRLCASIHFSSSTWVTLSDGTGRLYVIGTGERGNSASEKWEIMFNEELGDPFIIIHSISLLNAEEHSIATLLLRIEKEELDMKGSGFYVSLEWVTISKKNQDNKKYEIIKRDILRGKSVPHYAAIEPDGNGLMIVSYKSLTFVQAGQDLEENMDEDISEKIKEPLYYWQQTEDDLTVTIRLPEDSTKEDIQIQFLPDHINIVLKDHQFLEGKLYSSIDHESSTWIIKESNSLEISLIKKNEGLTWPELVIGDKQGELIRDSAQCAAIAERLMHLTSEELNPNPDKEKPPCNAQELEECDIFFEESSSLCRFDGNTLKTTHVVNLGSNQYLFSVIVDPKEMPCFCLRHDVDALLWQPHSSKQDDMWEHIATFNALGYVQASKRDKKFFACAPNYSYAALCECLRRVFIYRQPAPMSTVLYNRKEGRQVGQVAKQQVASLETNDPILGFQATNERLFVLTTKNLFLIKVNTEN

[6] = biological target: T6, cysteines in MDA-MB-231 and Ramos cells (Homo sapiens, UniProt Q5TFE4); conditions: 200 μM, insitu
T6 sequence (Q5TFE4 1-455): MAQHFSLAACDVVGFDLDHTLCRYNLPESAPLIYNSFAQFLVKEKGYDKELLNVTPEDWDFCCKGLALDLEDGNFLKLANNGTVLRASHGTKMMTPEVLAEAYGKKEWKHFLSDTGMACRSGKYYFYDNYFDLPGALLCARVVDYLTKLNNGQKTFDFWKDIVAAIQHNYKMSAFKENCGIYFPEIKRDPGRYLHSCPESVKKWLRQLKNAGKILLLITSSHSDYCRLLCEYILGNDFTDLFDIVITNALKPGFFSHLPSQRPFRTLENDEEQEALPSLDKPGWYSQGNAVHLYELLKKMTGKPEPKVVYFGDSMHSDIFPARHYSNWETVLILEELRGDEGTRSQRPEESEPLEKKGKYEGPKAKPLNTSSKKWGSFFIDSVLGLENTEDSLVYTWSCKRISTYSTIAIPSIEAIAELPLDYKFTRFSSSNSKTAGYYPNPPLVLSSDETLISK

isoTOP-ABPP reactivity Q5JPI3_C308 C3orf38 ([1]; 200 μM, insitu, 231): 2.9
isoTOP-ABPP reactivity Q9NTX5_C133 ECHDC1 ([2]; 200 μM, insitu, 231): 1.5
isoTOP-ABPP reactivity Q9P0J1_C149 PDP1 ([3]; 200 μM, insitu, 231): 20.0
SMILES: COc1ccc2c(c1)CCCN2C(=O)CCl [compound 2]

isoTOP-ABPP ratio Q5JPI3_C308 ([1]; 200 μM, insitu, 231): 0.7
isoTOP-ABPP ratio Q9NTX5_C133 ([2]; 200 μM, insitu, 231): 1.5
SMILES: CC(C)CCOCCNC(=O)CCl [compound 27]

isoTOP-ABPP ratio, cysteine Q86X76_C203 ([4]; 200 μM, insitu, 231): 3.9
isoTOP-ABPP ratio Q96RS6_C376 ([5]; 200 μM, insitu, 231): 1.1
isoTOP-ABPP ratio Q9NTX5_C133 ([2]; 200 μM, insitu, 231): 1.2
isoTOP-ABPP ratio, cysteine Q9P0J1_C149 ([3]; 200 μM, insitu, 231): 18.5
SMILES: O=C(CCl)NC(=O)NC12CC3CC(CC(C3)C1)C2 [compound 12]

isoTOP-ABPP ratio, cysteine Q5JPI3_C308 ([1]; 200 μM, insitu, 231): 0.9
isoTOP-ABPP ratio, cysteine Q5TFE4_C119 [6]; 231: 1.2
isoTOP-ABPP ratio, cysteine Q86X76_C203 ([4]; 200 μM, insitu, 231): 0.8
isoTOP-ABPP ratio Q96RS6_C376 ([5]; 200 μM, insitu, 231): 1.4
isoTOP-ABPP ratio Q9NTX5_C133 ([2]; 200 μM, insitu, 231): 1.1
SMILES: O=C(CCl)NC12CC3CC(CC(C3)C1)C2 [compound 21]

isoTOP-ABPP ratio, cysteine Q5TFE4_C119 ([6]; ramos): 20.0
isoTOP-ABPP ratio Q96RS6_C376 ([5]; 200 μM, insitu, 231): 5.7
isoTOP-ABPP ratio Q9NTX5_C133 ([2]; 200 μM, insitu, 231): 1.6
isoTOP-ABPP ratio, cysteine Q9P0J1_C149 ([3]; 200 μM, insitu, 231): 18.0
SMILES: O=C(CCl)N1CCN(S(=O)(=O)c2ccccc2F)CC1 [compound 10]

isoTOP-ABPP ratio Q5JPI3_C308 ([1]; 200 μM, insitu, 231): 0.7
isoTOP-ABPP ratio Q5TFE4_C119 [6]; 231: 0.5
isoTOP-ABPP ratio Q86X76_C203 ([4]; 200 μM, insitu, 231): 1.3
isoTOP-ABPP ratio Q96RS6_C376 ([5]; 200 μM, insitu, 231): 0.7
isoTOP-ABPP ratio Q9P0J1_C149 ([3]; 200 μM, insitu, 231): 20.0
SMILES: Cc1ccc(C=C(C#N)C(=O)NCCN2CCOCC2)cc1 [compound 41]

isoTOP-ABPP ratio, cysteine Q5JPI3_C308 ([1]; 100 μM in situ 231): 1.0
isoTOP-ABPP ratio, cysteine Q86X76_C203 ([4]; 100 μM in situ 231): 0.8
isoTOP-ABPP ratio Q96RS6_C376 ([5]; 100 μM in situ 231): 0.8
isoTOP-ABPP ratio Q9NTX5_C133 ([2]; 100 μM in situ 231): 1.0
isoTOP-ABPP ratio, cysteine Q9P0J1_C149 ([3]; 100 μM in situ 231): 1.4
SMILES: Cn1cc(S(=O)(=O)N2CCOCC2)cc1C(=O)NC(=O)CCl [compound 11]

isoTOP-ABPP ratio Q86X76_C203 ([4]; 200 μM, insitu, 231): 20.0
isoTOP-ABPP ratio Q9NTX5_C133 ([2]; 200 μM, insitu, 231): 4.2
SMILES: CC1CCc2ccccc2N1C(=O)CCl (centres unmarked) [compound 45]

isoTOP-ABPP ratio Q9P0J1_C149 ([3]; 200 μM, insitu, 231): 0.8
SMILES: O=C(CCl)Nc1cccc2ncccc12 [compound 51]

isoTOP-ABPP ratio Q96RS6_C376 ([5]; 200 μM, insitu, 231): 1.3
isoTOP-ABPP ratio Q9P0J1_C149 ([3]; 200 μM, insitu, 231): 0.9
SMILES: C=CC(=O)Nc1cc(F)c(N2CCN(C(=O)OC(C)(C)C)CC2)c(F)c1 [compound 38]

isoTOP-ABPP reactivity Q9NTX5_C133 ECHDC1 ([2]; 200 μM, insitu, 231): 2.0
SMILES: COc1cc2c(cc1OC)CN(C(=O)CCl)CC2 [compound 8]

isoTOP-ABPP ratio Q5TFE4_C119 [6]; 231: 3.1
isoTOP-ABPP ratio Q96RS6_C376 ([5]; 200 μM, insitu, 231): 0.8
SMILES: C=CC(=O)N(Cc1cccnc1)c1cc(C(F)(F)F)cc(C(F)(F)F)c1 [compound 31]

isoTOP-ABPP ratio, cysteine Q5JPI3_C308 ([1]; 200 μM, insitu, 231): 1.1
isoTOP-ABPP ratio, cysteine Q5JPI3_C308 ([1]; 200 μM, insitu, ramos): 1.7
isoTOP-ABPP ratio, cysteine Q5TFE4_C119 ([6]; ramos): 1.7
isoTOP-ABPP ratio Q96RS6_C376 ([5]; 200 μM, insitu, 231): 0.7
isoTOP-ABPP ratio Q96RS6_C376 ([5]; 200 μM, insitu, ramos): 1.2
isoTOP-ABPP ratio Q9NTX5_C133 ([2]; 200 μM, insitu, 231): 1.1
SMILES: O=C(CCl)NCCc1c[nH]c2ccccc12 [compound 13]

isoTOP-ABPP reactivity Q5TFE4_C119 NT5DC1 [6]; 231: 20.0
isoTOP-ABPP reactivity Q96RS6_C376 NUDCD1 ([5]; 200 μM, insitu, 231): 2.2
SMILES: O=C(CCl)N1CCC(Cc2ccccc2)CC1 [compound 9]

isoTOP-ABPP reactivity Q86X76_C203 NIT1 ([4]; 100 μM in situ 231): 0.7
isoTOP-ABPP reactivity Q96RS6_C376 NUDCD1 ([5]; 100 μM in situ 231): 1.6
isoTOP-ABPP reactivity Q9NTX5_C133 ECHDC1 ([2]; 100 μM in situ 231): 1.7
SMILES: COc1ccc(C2CC(c3cccs3)=NN2C(=O)CCl)cc1 (centres unmarked) [compound 4]

isoTOP-ABPP ratio Q5JPI3_C308 ([1]; 200 μM, insitu, ramos): 1.3
isoTOP-ABPP ratio Q96RS6_C376 ([5]; 200 μM, insitu, ramos): 1.3
isoTOP-ABPP ratio Q9P0J1_C149 ([3]; 200 μM, insitu, ramos): 1.0
SMILES: O=C(CCl)N1CCN(CC(=O)N2CCOCC2)CC1 [compound 29]
